Data on 2 compounds can be found in paper PMC3612716 (British Journal of Clinical Pharmacology, 2012).

The subject of series [1] is healthy subjects. In words: Safety and tolerability. In kind it is in vivo, human. To be noted: ITT population, by treatment.
Series [2] deals with healthy subjects. In words: Thorough QT study: ECG. The following applies: positive control.
Series [3] has as its system patients with type 2 diabetes / healthy subjects. The following applies: previous findings; cited from earlier work.

Consider `COc1c(N2C[C@@H]3CCCN[C@@H]3C2)c(F)cc2c(=O)c(C(=O)O)cn(C3CC3)c12` [moxifloxacin], for which, in series [1], the “subjects experiencing adverse events” value stood at 23%. Also, the “LS mean ΔΔQTcP (two-sided 90% CI)” value in series [2] (1 h following single 400 mg oral dose) is 5.47 (2.82, 8.12) ms; in series [2] (2 h following single 400 mg oral dose), 10.56 (8.46, 12.67) ms; in series [2] (3 h following single 400 mg oral dose), 10.93 (8.71, 13.13).
liraglutide: the “changes in QTc at therapeutic concentrations” value in series [3] is listed as “no clinically meaningful changes in QTc”.
